Data: patent US5344843A, “Cat-1 inhibitors, pharmaceutical compositions and methods of use” (Hoffman-La Roche Inc., priority 1992, dated 1994)
Structures can show the parent of a compound that is named as a salt.

What follows are compounds tested against T1, CAT-1 (carnitine acyltransferase 1) (Rattus norvegicus, UniProt Q63704) (assay: Primary Screen--Inhibition of CAT-1 in isolated mitochondria). Settings: not given.
T1 construct: This preparation is used as the isolated mitochondrial preparation; from tissue; host or cells: rat heart (atria removed), isolated mitochondria
T1 sequence (Q63704 1-772): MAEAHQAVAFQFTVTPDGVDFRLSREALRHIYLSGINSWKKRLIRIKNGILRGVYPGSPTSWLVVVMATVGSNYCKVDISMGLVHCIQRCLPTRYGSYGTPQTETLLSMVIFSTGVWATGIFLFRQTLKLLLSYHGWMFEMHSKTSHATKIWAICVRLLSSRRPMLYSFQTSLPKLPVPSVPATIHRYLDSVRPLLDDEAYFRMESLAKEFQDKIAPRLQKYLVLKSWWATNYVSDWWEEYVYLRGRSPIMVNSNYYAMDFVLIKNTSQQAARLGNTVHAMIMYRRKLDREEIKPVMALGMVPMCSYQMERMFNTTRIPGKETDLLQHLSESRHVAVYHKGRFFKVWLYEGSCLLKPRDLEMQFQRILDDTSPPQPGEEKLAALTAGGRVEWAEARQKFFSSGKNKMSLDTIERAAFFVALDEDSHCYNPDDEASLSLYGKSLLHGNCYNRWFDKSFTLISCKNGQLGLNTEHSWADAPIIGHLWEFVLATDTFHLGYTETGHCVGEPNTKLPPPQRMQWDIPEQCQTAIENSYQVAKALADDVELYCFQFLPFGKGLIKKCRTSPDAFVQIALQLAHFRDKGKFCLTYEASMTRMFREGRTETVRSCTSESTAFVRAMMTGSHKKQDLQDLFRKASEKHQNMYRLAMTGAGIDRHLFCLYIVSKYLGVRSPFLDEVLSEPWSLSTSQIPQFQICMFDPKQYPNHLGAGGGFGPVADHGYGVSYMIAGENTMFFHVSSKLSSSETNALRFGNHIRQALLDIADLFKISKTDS
Format: biochemical
Set-up: inhibition: dose or concentration left out as unconfirmed

inhibition [%] | Structure (SMILES) | IC50 [nM]
24 | COc1cc(OCCOc2ccc3ccccc3c2)cc(OC)c1C(=O)C(=O)O [Example 195, 2,6-dimethoxy-4-[2-(2-naphthalenyloxy)ethoxy]-alpha-oxobenzeneacetic acid] | 
37 | O=C(O)C(=O)c1cc(F)c(OCCOc2ccc3ccccc3c2)c(F)c1 [Example 203, 3,5-difluoro-4-[2-(2-naphthalenyloxy)ethoxy]-alpha-oxobenzeneacetic acid] | 
 | Cc1nnc2n1-c1sc(C#CCOc3ccc(C(=O)C(=O)O)cc3)cc1C(c1ccccc1Cl)=NC2 [Example 294, 4-[3-[4-(2-chlorophenyl)-9-methyl-6H-thieno[3,2-f][1,2,4]triazolo[4,3-a][1,4]diazepin-2-yl]-2-propynyloxy]-alpha-oxobenzeneacetic acid] | 300
 | O=C(O)C(=O)c1ccc(OCC(=O)N2CCN(CCc3ccccc3C(F)(F)F)CC2)cc1 [Example 253, alpha-oxo-4-[2-oxo-2-[4-[2-[2-(trifluoromethyl)phenyl]ethyl]-1-piperazinyl]ethoxy]benzeneacetic acid (1:1) hydrochloride] | 500

Same assay, conditions: rat heart mitochondria, reduction of palmitoyl carnitine formation by 50%; read-out: Primary Screen IC50

IC50 [nM] | Structure (SMILES)
960 | O=C(O)C(=O)c1ccc(OCCOc2ccnc3ccccc23)cc1 [Example 131, alpha-oxo-4-[[2-(4-quinolyloxy)ethyl]oxy]benzeneacetic acid]
3500 | O=C(C(=O)N(CCO)CCO)c1ccc(OCCOc2ccc3ccccc3c2)cc1 [Example 163, N,N-bis(2-hydroxyethyl)-4-[[2-(2-naphthalenyloxy)ethyl]oxy]-alpha-oxobenzeneacetamide]
260 | O=C(O)C(=O)c1ccc(OCCOc2ccc3cccnc3c2)cc1 [Example 127, alpha-oxo-4-[[2-(7-quinolyloxy)ethyl]oxy]benzeneacetic acid monohydrate]
150 | O=C(O)C(=O)c1ccc(OCCCNC(=O)c2ccc3ccccc3c2)cc1 [Example 140, 4-[[3-(2-naphthoylamino)propyl]oxy]-alpha-oxobenzeneacetic acid]
6700 | O=C(O)C(=O)c1c(Cl)cc(OCCOc2ccc3ccccc3c2)cc1Cl [Example 191, 2,6-dichloro-4-[2-(2-naphthalenyloxy)ethoxy]-alpha-oxobenzeneacetic acid]
570 | CC(C)(C)c1cc(SCCCOc2ccc(C(=O)C(=O)O)cc2)cc(C(C)(C)C)c1O [Example 275, 4-[3-[[3,5-bis(1,1-dimethylethyl)-4-hydroxyphenyl]thio]propoxy]-alpha-oxobenzeneacetic acid]
650 | O=C(O)C(=O)c1ccc(OCCOc2cc3ccccc3cc2OCCOc2ccccc2)cc1 [Example 116, alpha-oxo-4-[[2-[3-(2-phenoxyethoxy)-2-naphthalenyloxy]ethyl]oxy]benzeneacetic acid]
10000 | O=C(O)C(=O)c1ccc(OCCCCCCOc2ccccc2)cc1 [Example 75, alpha-oxo-4-[[(6-phenoxy)hexyl]oxy]benzeneacetic acid]
90000 | O=C(O)C(=O)c1ccc(OCc2ccccc2)cc1 [Example 19, 4-[(phenylmethyl)oxy]-alpha-oxobenzeneacetic acid]
500 | O=C(O)/C(=N\OCc1ccccc1)c1ccc(OCCOc2ccc3ccccc3c2)s1 [Example 316, (E)-5-[2-(2-naphthalenyloxy)ethoxy]-alpha-[(phenylmethoxy)imino]-2-thiopheneacetic acid]
3000 | O=C(O)C(=O)c1ccc(OCCOc2ccc([N+](=O)[O-])cc2)cc1 [Example 47, 4-[[2-(4-nitrophenoxy)ethyl]oxy]-alpha-oxobenzeneacetic acid]
6000 | O=C(O)C(=O)c1ccc(OCCOc2ccc(C(=O)C(=O)O)cc2)cc1 [Example 55]
240 | CCO/N=C(\C(=O)O)c1ccc(OCCOc2ccc3ccccc3c2)s1 [Example 310, (E)-alpha-(ethoxyimino)-5-[2-(2-naphthalenyloxy)ethoxy]-2-thiopheneacetic acid]
2000 | O=C(O)C(=O)c1ccc(OCCOCCOc2ccc(C(=O)C(=O)O)cc2)cc1 [Example 78, 4,4'-[oxybis(2,1-ethanedienyloxy)]bis(alpha-oxobenzeneacetic acid)]
5100 | O=C(O)C(=O)c1ccc(OCc2ccc3ccccc3n2)cc1 [Example 159, 4-[(2-quinolinyl)methoxy]-alpha-oxo-benzeneacetic acid]

Continued, compound first:

Structure (SMILES) | IC50 [nM]
O=C(O)C(=O)c1ccc(OCCOc2ccc(C(F)(F)F)cc2)cc1 [Example 51, alpha-oxo-4-[[2-(4-trifluoromethylphenoxy)ethyl]oxy]benzeneacetic acid] | 800
CCCc1c(OCCCOc2ccc(C(=O)C(=O)O)cc2)ccc(C(=O)OC)c1O [Example 268, 4-[3-[3-hydroxy-4-(methoxycarbonyl)-2-propylphenoxy)propoxy]-alpha-oxobenzeneacetic acid] | 230
O=C(O)C(F)(F)c1ccc(OCCOc2ccccc2)cc1 [Example 11, alpha, alpha-difluoro-4-[[2-(phenoxy)ethyl]oxy]benzeneacetic acid] | 18000
O=C(O)C(=O)c1ccc(OCCCOc2ccccc2)cc1 [Example 69, alpha-oxo-4-[[(3-phenoxy)propyl]oxy]benzeneacetic acid] | 2000
CCO/N=C(/C(=O)O)c1ccc(OCCOc2ccc3ccccc3c2)s1 [Example 309, (Z)-alpha-(ethoxyimino)-5-[2-(2-naphthalenyloxy)ethoxy]-2-thiopheneacetic acid] | 20
O=C(O)C(=O)c1ccc(OCCOc2cccc(F)c2)cc1 [Example 41, 4-[[2-(3-fluorophenoxy)ethyl]oxy]-alpha-oxobenzeneacetic acid] | 1000
O=C(O)C(=O)c1ccc(OC/C=C/c2ccc(F)cc2)cc1 [Example 29, (E)-4-[[3-(4-fluorophenyl)-2-propenyl]oxy]-alpha-oxobenzeneacetic acid] | 250
O=C(O)C(=O)c1ccc(OCC(=O)c2ccccc2-c2ccccc2)cc1 [Example 288, 4-[2-[[1,1'-biphenyl]-2-yl]-2-oxoethoxy]-alpha-oxobenzeneacetic acid] | 1400
NS(=O)(=O)c1ccc(OCCOc2ccc(C(=O)C(=O)O)cc2)cc1 [Example 53, 4-[[2-[4-(aminosulfonyl)phenoxy]ethyl]oxy]-alpha-oxobenzeneacetic acid] | 4000
O=C(O)C(=O)c1ccc(OC/C=C\c2ccccc2)cc1 [Example 33, (Z)-alpha-oxo-4-[(3-phenyl-2-propenyl)oxy]benzeneacetic acid] | 1000
CCCc1c(OCCCOc2ccc(C(=O)C(=O)O)cc2)ccc(C(C)=O)c1OC [Example 271, 4-[3-[4-acetyl-3-methoxy-2-propylphenoxy)propoxy]-alpha-oxobenzeneacetic acid] | 460
C=CCO/N=C(\C(=O)O)c1ccc(OCCOc2ccc3ccccc3c2)s1 [Example 313, (E)-5-[2-(2-naphthalenyloxy)ethoxy]-alpha-[(2-propenyloxy)imino]-2-thiopheneacetic acid] | 270
O=C(O)C(=O)c1ccc(OCC#Cc2ccccc2)cc1 [Example 35, alpha-oxo-4-[(3-phenyl-2-propynyl)oxy]benzeneacetic acid] | 400
O=C(O)C(=O)c1ccc(OCCCn2c(=O)ccc3ccccc32)cc1 [Example 264, 4-[3-(1,2-dihydro-2-oxo-1-quinolinyl)propoxy]-alpha-oxobenzeneacetic acid] | 12000
